Source: ChEMBL document CHEMBL1201862, “PubChem BioAssay data set” (2004)
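Five concentrations, 48 hours, 96-well plates. GI50 marks 50% less growth.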 The source made the active and inactive calls. Cut-off read from the data, not from the text of the source: active = GI50 up to about 1.1 µM and inactive = higher.

Legend:
Experiment in all cases: DTP human tumour cell line panel, 48 h
[1] = system: 786-0
[2] = system: A498
[3] = system: A549
[4] = system: ACHN
[5] = system: CAKI-1
[6] = system: CCRF-CEM
[7] = system: COLO 205
[8] = system: DMS-114
[9] = system: EKVX
[10] = system: HCC 2998
[11] = system: HCT-116
[12] = system: HCT-15
[13] = system: HL-60
[14] = system: HOP-62
[15] = system: HT-29
[16] = system: IGROV-1
[17] = system: K562
[18] = system: KM-20L2
[19] = system: KM12
[20] = system: LOX IMVI
[21] = system: M14
[22] = system: M19-MEL
[23] = system: MOLT-4
[24] = system: Malme-3M
[25] = system: NCI-H226
[26] = system: NCI-H23
[27] = system: NCI-H460
[28] = system: NCI-H522
[29] = system: OVCAR-3
[30] = system: OVCAR-4
[31] = system: OVCAR-5
[32] = system: OVCAR-8
[33] = system: RPMI-8226
[34] = system: RXF 393
[35] = system: SF-268
[36] = system: SF-295
[37] = system: SF-539
[38] = system: SK-MEL-28
[39] = system: SK-MEL-2
[40] = system: SK-MEL-5
[41] = system: SK-OV-3
[42] = system: SN12C
[43] = system: SNB-19
[44] = system: SNB-75
[45] = system: SNB-78
[46] = system: SR
[47] = system: SW-620
[48] = system: TK-10
[49] = system: U-251
[50] = system: UACC-257
[51] = system: UACC-62
[52] = system: UO-31
[53] = system: DLD-1
[54] = system: DMS-273
[55] = system: HOP-92
[56] = system: LXFL 529
[57] = system: BT-549
[58] = system: DU-145
[59] = system: Hs-578T
[60] = system: MCF7
[61] = system: MDA-MB-231
[62] = system: MDA-MB-435
[63] = system: MDA-N
[64] = system: NCI/ADR-RES
[65] = system: PC-3
[66] = system: T47D

## CN(C)C(=S)/N=c1\ss/c(=N\C(=S)N(C)C)n1C1CCCCC1
[1]
  GI50: > 100 µM (inactive)
[2]
  GI50: > 100 µM (inactive)
[3]
  GI50: > 100 µM (inactive)
[4]
  GI50: > 100 µM (inactive)
[5]
  GI50: > 100 µM (inactive)
[6]
  GI50: 32.7 µM (inactive)
[7]
  GI50: 30.8 µM (inactive)
[8]
  GI50: 0.452 µM (active)
[9]
  GI50: > 100 µM (inactive)
[10]
  GI50: > 100 µM (inactive)
[11]
  GI50: > 100 µM (inactive)
[12]
  GI50: > 100 µM
[13]
  GI50: 69 µM (inactive)
[14]
  GI50: > 100 µM (inactive)
[15]
  GI50: 0.458 µM (active)
[16]
  GI50: > 100 µM (inactive)
[17]
  GI50: 28.1 µM (inactive)
[18]
  GI50: > 100 µM (inactive)
[19]
  GI50: > 100 µM (inactive)
[20]
  GI50: 86.3 µM (inactive)
[21]
  GI50: > 100 µM (inactive)
[22]
  GI50: 0.524 µM (active)
[23]
  GI50: 80.2 µM (inactive)
[24]
  GI50: > 100 µM (inactive)
[25]
  GI50: > 100 µM (inactive)
[26]
  GI50: 63.2 µM (inactive)
[27]
  GI50: 0.515 µM (active)
[28]
  GI50: 25.5 µM (inactive)
[29]
  GI50: > 100 µM (inactive)
[30]
  GI50: 15.5 µM (inactive)
[31]
  GI50: > 100 µM (inactive)
[32]
  GI50: 84.3 µM (inactive)
[33]
  GI50: 25.5 µM (inactive)
[34]
  GI50: > 100 µM (inactive)
[35]
  GI50: 44.9 µM (inactive)
[36]
  GI50: > 100 µM (inactive)
[37]
  GI50: > 100 µM (inactive)
[38]
  GI50: > 100 µM (inactive)
[39]
  GI50: > 100 µM (inactive)
[40]
  GI50: 2.29 µM (inactive)
[41]
  GI50: > 100 µM (inactive)
[42]
  GI50: > 100 µM (inactive)
[43]
  GI50: 22 µM (inactive)
[44]
  GI50: 76.4 µM (inactive)
[45]
  GI50: 49.4 µM (inactive)
[46]
  GI50: > 100 µM (inactive)
[47]
  GI50: > 100 µM (inactive)
[48]
  GI50: > 100 µM (inactive)
[49]
  GI50: 27.4 µM (inactive)
[50]
  GI50: > 100 µM (inactive)
[51]
  GI50: 1.06 µM (active)
[52]
  GI50: > 100 µM (inactive)

## O=C(/C=C/c1ccc(Cl)cc1)c1ccc(Cl)c(Cl)c1
[1]
  GI50: 25.5 µM (inactive)
[2]
  GI50: 34.4 µM (inactive)
[3]
  GI50: 23.7 µM (inactive)
[4]
  GI50: 29 µM (inactive)
[5]
  GI50: 18.1 µM (inactive)
[6]
  GI50: 16.2 µM (inactive)
[7]
  GI50: > 10 µM (inactive)
[53]
  GI50: 15 µM (inactive)
[8]
  GI50: 23.6 µM (inactive)
[54]
  GI50: 40.9 µM (inactive)
[9]
  GI50: 26.4 µM (inactive)
[10]
  GI50: 30.3 µM (inactive)
[11]
  GI50: 4.99 µM (inactive)
[12]
  GI50: 26 µM
[13]
  GI50: 3.44 µM (inactive)
[14]
  GI50: 22 µM (inactive)
[55]
  GI50: > 10 µM (inactive)
[15]
  GI50: 48 µM (inactive)
[16]
  GI50: 22.3 µM (inactive)
[17]
  GI50: 21.7 µM (inactive)
[18]
  GI50: 41.2 µM (inactive)
[19]
  GI50: 9.31 µM (inactive)
[20]
  GI50: 15.2 µM (inactive)
[56]
  GI50: 18.9 µM (inactive)
[21]
  GI50: 28 µM (inactive)
[22]
  GI50: 27.8 µM (inactive)
[23]
  GI50: 20.5 µM (inactive)
[24]
  GI50: 25.1 µM (inactive)
[25]
  GI50: 14 µM (inactive)
[26]
  GI50: 9.4 µM (inactive)
[27]
  GI50: 34.6 µM (inactive)
[28]
  GI50: 18.8 µM (inactive)
[29]
  GI50: 21.7 µM (inactive)
[30]
  GI50: 26.4 µM (inactive)
[31]
  GI50: > 10 µM (inactive)
[32]
  GI50: 20.6 µM (inactive)
[33]
  GI50: 2.95 µM (inactive)
[34]
  GI50: 15.5 µM (inactive)
[35]
  GI50: 20.7 µM (inactive)
[36]
  GI50: 35.2 µM (inactive)
[37]
  GI50: 20 µM (inactive)
[38]
  GI50: 17.3 µM (inactive)
[39]
  GI50: 23.4 µM (inactive)
[40]
  GI50: 18.1 µM (inactive)
[41]
  GI50: 26.4 µM (inactive)
[42]
  GI50: 9.1 µM (inactive)
[43]
  GI50: 23.7 µM (inactive)
[44]
  GI50: 19.6 µM (inactive)
[45]
  GI50: > 10 µM (inactive)
[47]
  GI50: 5.41 µM (inactive)
[48]
  GI50: > 10 µM (inactive)
[49]
  GI50: 11.2 µM (inactive)
[50]
  GI50: 29.6 µM (inactive)
[51]
  GI50: 23.7 µM (inactive)
[52]
  GI50: 28.5 µM (inactive)

## Nc1cc(S(N)(=O)=O)ccc1SSc1ccc(S(N)(=O)=O)cc1N
[1]
  GI50: > 100 µM (inactive)
[2]
  GI50: > 100 µM (inactive)
[3]
  GI50: > 100 µM (inactive)
[4]
  GI50: > 62.5 µM (inactive)
[57]
  GI50: > 100 µM (inactive)
[5]
  GI50: > 100 µM (inactive)
[6]
  GI50: 8.49 µM (inactive)
[7]
  GI50: > 100 µM (inactive)
[58]
  GI50: > 100 µM (inactive)
[9]
  GI50: > 100 µM (inactive)
[10]
  GI50: > 100 µM (inactive)
[11]
  GI50: > 100 µM (inactive)
[12]
  GI50: > 100 µM
[13]
  GI50: > 100 µM (inactive)
[14]
  GI50: > 100 µM (inactive)
[55]
  GI50: > 100 µM (inactive)
[15]
  GI50: > 100 µM (inactive)
[59]
  GI50: > 100 µM (inactive)
[16]
  GI50: > 100 µM (inactive)
[17]
  GI50: > 96.6 µM (inactive)
[19]
  GI50: > 100 µM (inactive)
[20]
  GI50: > 100 µM (inactive)
[21]
  GI50: > 100 µM (inactive)
[60]
  GI50: > 100 µM (inactive)
[61]
  GI50: > 100 µM (inactive)
[62]
  GI50: > 100 µM (inactive)
[63]
  GI50: > 100 µM (inactive)
[23]
  GI50: 62.7 µM (inactive)
[24]
  GI50: > 100 µM (inactive)
[25]
  GI50: > 100 µM (inactive)
[26]
  GI50: > 100 µM (inactive)
[27]
  GI50: > 100 µM (inactive)
[28]
  GI50: > 100 µM (inactive)
[64]
  GI50: > 100 µM (inactive)
[29]
  GI50: > 100 µM (inactive)
[30]
  GI50: > 100 µM (inactive)
[31]
  GI50: > 100 µM (inactive)
[32]
  GI50: > 100 µM (inactive)
[65]
  GI50: > 100 µM (inactive)
[33]
  GI50: > 100 µM (inactive)
[34]
  GI50: > 100 µM (inactive)
[35]
  GI50: > 100 µM (inactive)
[36]
  GI50: > 100 µM (inactive)
[37]
  GI50: > 100 µM (inactive)
[38]
  GI50: > 100 µM (inactive)
[39]
  GI50: > 100 µM (inactive)
[40]
  GI50: > 52.4 µM (inactive)
[41]
  GI50: > 100 µM (inactive)
[42]
  GI50: > 100 µM (inactive)
[43]
  GI50: > 100 µM (inactive)
[44]
  GI50: > 100 µM (inactive)
[46]
  GI50: 57 µM (inactive)
[47]
  GI50: > 100 µM (inactive)
[66]
  GI50: > 100 µM (inactive)
[48]
  GI50: > 100 µM (inactive)
[49]
  GI50: > 100 µM (inactive)
[50]
  GI50: > 100 µM (inactive)
[51]
  GI50: > 100 µM (inactive)
[52]
  GI50: > 100 µM (inactive)
